Measurements: patent US11214556B1, “Method of treating colorectal cancer” (King Abdulaziz University, priority 2019, dated 2022)

Tested on: HCT-116 cells
Test: Nuclear fragmentation by DAPI staining
Assay type: cell-based, human
Details: 2.85 μM (IC50), 48 h compared to 24 h
Description: Several assays were performed to determine the apoptotic effect of the early lead MOS-1512 as well as the potent derivative MOS-4112 on HCT-116 cells. […] See Drutovic, D.; Chripkova, M.; Pilatova, M.; Kruzliak, P.; Perjesi, P.; Sarissky, M.; Lupi, M.; Damia, G.; Broggini, M.; Mojzis, J., Benzylidenetetralones, cyclic chalcone analogues, induce cell cycle arrest and apoptosis in HCT116 colorectal cancer cells. Tumour Biol 2014, 35 (10), 9967-75, incorporated herein by reference in its entirety.
Cells were cultured on sterile 22 mm^2 cover slips (Harvard Apparatus, MA, USA) in sterile six well plates at a density of 2×10^5 cells/well. […] The fixed and permeabilized cells nuclei were denatured with 2 N HCl (300 μl) for 10 min, washed three times more, and treated with 0.1 μg/ml 4′,6′-diamidino-2-phenylindole, dihydrochloride (DAPI) (Sigma-Aldrich, St. Louis, Mo., USA) (1:1000) in (phosphate-buffered saline-Tween 20 (PBST) for 1 hr. After staining, the cells were washed twice with PBS. The cover slips were then mounted on a glass slide with anti-fade mounting medium and viewed with an epifluorescence microscope, Leica, DM 5500 B (Leica, Buffalo Grove, Ill., USA) at a magnification of 60×, and data were captured digitally and quantified using the microscope provided software.

## CCCNC(=O)/C(=C/c1c[nH]c2ccccc12)NC(=O)/C=C/c1cccs1 [Compound 4112, (Z)-3-(1H-indol-3-yl)-N-propyl-2-[(E)-3-(thien-2-yl)acrylamidolacry]amide]
  percentage of cells with fragmented DNA and condensed nuclei: greatly increased
